Test: storage stability of the solid salt forms at 90° C. for 4 days (discoloration, decomposition)
Format: physicochemical

Row | discoloration or decomposition (4 days at 90° C.) | stability (4 days at 90° C.) | SMILES | stability properties in comparison with other forms (compared with pantoprazole itself, pantoprazole sodium sesquihydrate and pantoprazole sodium monohydrate) | formation of decomposition products (4 days at 90° C.)
1 | almost no discoloration or decomposition | completely stable | COc1ccnc(C[S+]([O-])c2nc3cc(OC(F)F)ccc3[n-]2)c1OC.COc1ccnc(C[S+]([O-])c2nc3cc(OC(F)F)ccc3[n-]2)c1OC.O.O.[Mg+2] (centres unmarked) [pantoprazole magnesium dihydrate] | very considerably improved stability properties | 
2 | turn brown-red |  | COc1ccnc(C[S+]([O-])c2nc3ccc(OC(F)F)cc3[nH]2)c1OC (centres unmarked) [pantoprazole sodium sesquihydrate, sodium[5-[difluoromethoxy]-2-[[3,4-dimethoxy-2-pyridinyl]methyl]sulfinyl]-1H-benzimidazolide]sesquihydrate, reference compound] |  | considerable amounts of decomposition products
